Test results taken from ChEMBL document CHEMBL4145625 (J Med Chem, 2018).
In brackets after ≈: the same amount, converted by molar mass.

Key:
NCI-H460 [1] = assay: Antitumor activity against human NCI-H460 cells xenografted in BALB/c nude mouse assessed as tumor growth inhibition at 24 mg/kg, ip administered once daily after 16 days relative to control; format: functional; conditions: 384 h, read-out: TGI
Mus musculus [2] = assay: Toxicity in human NCI-H460 cells xenografted BALB/c nude mouse assessed as reduction in body weight at 24 mg/kg, ip administered once daily after 20 days; format: organism-based; conditions: in vivo, 480 h
Mus musculus [3] = assay: Toxicity in human NCI-H460 cells xenografted BALB/c nude mouse assessed as reduction in body weight at 24 mg/kg, ip administered once daily after 16 days; format: organism-based; conditions: in vivo, 384 h
NCI-H460 [4] = assay: Antitumor activity against human NCI-H460 cells xenografted in BALB/c nude mouse assessed as tumor growth inhibition at 24 mg/kg, ip administered once daily after 20 days relative to control; format: functional; conditions: 480 h, read-out: TGI
U-87 MG [5] = assay: Antitumor activity against Luc tagged human U87MG cells xenografted in BALB/c nude mouse glioblastoma orthotopic model assessed as tumor growth inhibition at 30 mg/kg, po administered daily for 5 days by MRI method relative to control; format: functional, U-87MG ATCC; conditions: 120 h, read-out: TGI
NCI-H460 [6] = assay: Antitumor activity against human NCI-H460 cells xenografted in BALB/c nude mouse assessed as tumor growth inhibition at 10 mg/kg, po administered once daily after 20 days relative to control; format: functional; conditions: 480 h, read-out: TGI
NCI-H460 [7] = assay: cells; format: functional, cell-based; conditions: Homo sapiens, NCI-H460, 96 h
Description: Cytotoxicity against human NCI-H460 cells after 96 hrs by MTT assay

Mus musculus [8] = assay: Toxicity in human NCI-H460 cells xenografted BALB/c nude mouse assessed as reduction in body weight at 10 mg/kg, po administered once daily after 20 days; format: organism-based; conditions: in vivo, 480 h
in vivo [9] = conditions: ICR, mouse, in vivo, iv, 3 mg/kg
Description: Volume of distribution at steady state in ICR mouse plasma at 3 mg/kg, iv by LC/MS/MS analysis

NCI-H460 [10] = assay: Antitumor activity against human NCI-H460 cells xenografted in po dosed athymic BALB/c nude mouse administered as single dose via gavage after 2 to 24 hrs; format: functional, organism-based
in vivo [11] = conditions: athymic BALB/c nude, mouse, in vivo, po, 10 mg/kg
MGC-803 [12] = assay: animal or person; conditions: Mus musculus, MGC-803, po, 432 h, read-out: TGI
in vitro [13] = conditions: human, plasma
Description: Protein binding in human plasma at 2 uM after 6 hrs by LC-MS/MS analysis

MGC-803 [14] = assay: Antitumor activity against human MGC803 cells xenografted in BALB/c nude mouse assessed as tumor growth inhibition at 5 mg/kg, po administered once daily for 18 days measured at post last dose relative to control; format: functional; conditions: MGC-803, po, 432 h, read-out: TGI
in vivo [15] = conditions: ICR, mouse, in vivo, po, 30 mg/kg
DU-145 = assay: cells; format: functional, cell-based; conditions: Homo sapiens, DU-145, 96 h
Description: Cytotoxicity against human DU145 cells after 96 hrs by MTT assay

in vivo [16] = conditions: ICR, mouse, in vivo, iv, 3 mg/kg; remark: listed apart in the source
Description: Clearance in ICR mouse plasma at 3 mg/kg, iv by LC/MS/MS analysis

in vivo [17] = conditions: ICR, mouse, in vivo, po, 30 mg/kg; remark: listed apart in the source
HGC-27 [18] = assay: Antitumor activity against human HGC27 cells xenografted in BALB/c nude mouse assessed as tumor growth inhibition at […], po administered once daily for 15 days measured at post last dose relative to control; format: functional; conditions: HGC-27, po, 360 h, read-out: TGI
in vitro [19] = conditions: ICR, mouse, plasma
Description: Protein binding in ICR mouse plasma at 2 uM after 6 hrs by LC-MS/MS analysis

[20] = target: Phosphatidylinositol 4,5-bisphosphate 3-kinase catalytic subunit gamma isoform (Homo sapiens, UniProt P48736); assay: Inhibition of PI3Kgamma (unknown origin) using PIP2 as substrate by ADP-Glo assay
NCI-H209 [21] = conditions: Homo sapiens
Description: Antitumor activity against human NCI-H209 cells xenografted in po dosed BALB/c nude mouse assessed as tumor growth inhibition administered once daily after 19 consecutive days

U-87 MG [22] = assay: cells; format: functional, cell-based, U-87MG ATCC; conditions: Homo sapiens, 96 h
Description: Cytotoxicity against human U87MG cells after 96 hrs by MTT assay

in vivo [23] = conditions: ICR, mouse, in vivo, po, 30 mg/kg; remark: listed apart in the source
U-251 = assay: cells; format: functional, cell-based; conditions: Homo sapiens, U-251, 96 h
Description: Cytotoxicity against human U251 cells after 96 hrs by MTT assay

NCI-H209 [24] = assay: animal or person; conditions: Mus musculus, NCI-H209, po, read-out: TGI
MDA-MB-231 = assay: cells; format: functional, cell-based; conditions: Homo sapiens, MDA-MB-231, 96 h
Description: Cytotoxicity against human MDA-MB-231 cells after 96 hrs by MTT assay

in vivo [25] = conditions: ICR, mouse, in vivo, po, 30 mg/kg; remark: listed apart in the source
in vivo [26] = conditions: ICR, mouse, in vivo, iv, 3 mg/kg; remark: listed apart in the source
Description: Half life in ICR mouse plasma at 3 mg/kg, iv by LC/MS/MS analysis

in vivo [27] = conditions: ICR, mouse, in vivo, iv, 3 mg/kg; remark: listed apart in the source
in vivo [28] = conditions: ICR, mouse, po
Description: Toxicity in po dosed ICR mouse administered as single dose via oral gavage measured after 14 days

in vivo [29] = conditions: ICR, mouse, in vivo, iv, 3 mg/kg; remark: listed apart in the source
SH-SY5Y = assay: cells; format: functional, cell-based; conditions: Homo sapiens, 96 h
Description: Cytotoxicity against human SH-SY5Y cells after 96 hrs by MTT assay

NCI-H209 [30] = assay: animal or person; conditions: Mus musculus, NCI-H209, po, read-out: TGI; remark: listed apart in the source
Description: Antitumor activity against human NCI-H209 cells xenografted in BALB/c nude mouse assessed as tumor growth inhibition at 5 mg/kg, po administered once daily after 19 consecutive days relative to control

in vivo [31] = conditions: ICR, mouse, in vivo, po, 30 mg/kg; remark: listed apart in the source
Mus musculus [32] = assay: In vivo inhibition of PI3Kalpha in po dosed athymic BALB/c nude mouse xenografted with human NCI-H460 cells administered as single dose via gavage after 2 to 24 hrs; format: functional, organism-based
[33] = mouse, in vivo, po, 30 mg/kg
MGC-803 [34] = conditions: Homo sapiens
Description: Antitumor activity against human MGC803 cells xenografted in po dosed BALB/c nude mouse assessed as tumor growth inhibition administered once daily measured at post last dose

NCI-H460 [35] = assay: animal or person; conditions: Mus musculus, NCI-H460, po, 480 h, read-out: TGI
Description: Antitumor activity against human NCI-H460 cells xenografted in BALB/c nude mouse assessed as tumor growth inhibition at 5 mg/kg, po administered once daily after 20 days relative to control

A549 = assay: cells; format: functional, cell-based; conditions: Homo sapiens, A549, 96 h
Description: Cytotoxicity against human A549 cells after 96 hrs by MTT assay

T98G = assay: cells; format: functional, cell-based; conditions: Homo sapiens, 96 h
Description: Cytotoxicity against human T98G cells after 96 hrs by MTT assay

in vivo [36] = conditions: ICR, mouse, in vivo, iv, 3 mg/kg; remark: listed apart in the source
in vivo [37] = conditions: ICR, mouse, in vivo, po, 30 mg/kg; remark: listed apart in the source
in vivo [38] = conditions: ICR, mouse, in vivo, po, 30 mg/kg; remark: listed apart in the source
Description: Half life in ICR mouse plasma at 30 mg/kg, po by LC/MS/MS analysis

[39] = target: Serine/threonine-protein kinase mTOR (Homo sapiens, UniProt P42345); assay: Inhibition of mTOR (unknown origin) using ULight-4E-BP1 peptide as substrate after 30 mins by Lance Ultra assay
[40] = target: T1, Phosphatidylinositol 4,5-bisphosphate 3-kinase catalytic subunit delta isoform (Homo sapiens, UniProt O00329); assay: Inhibition of PI3Kdelta (unknown origin) using PIP2 as substrate by ADP-Glo assay
T1 sequence (O00329 whole entry): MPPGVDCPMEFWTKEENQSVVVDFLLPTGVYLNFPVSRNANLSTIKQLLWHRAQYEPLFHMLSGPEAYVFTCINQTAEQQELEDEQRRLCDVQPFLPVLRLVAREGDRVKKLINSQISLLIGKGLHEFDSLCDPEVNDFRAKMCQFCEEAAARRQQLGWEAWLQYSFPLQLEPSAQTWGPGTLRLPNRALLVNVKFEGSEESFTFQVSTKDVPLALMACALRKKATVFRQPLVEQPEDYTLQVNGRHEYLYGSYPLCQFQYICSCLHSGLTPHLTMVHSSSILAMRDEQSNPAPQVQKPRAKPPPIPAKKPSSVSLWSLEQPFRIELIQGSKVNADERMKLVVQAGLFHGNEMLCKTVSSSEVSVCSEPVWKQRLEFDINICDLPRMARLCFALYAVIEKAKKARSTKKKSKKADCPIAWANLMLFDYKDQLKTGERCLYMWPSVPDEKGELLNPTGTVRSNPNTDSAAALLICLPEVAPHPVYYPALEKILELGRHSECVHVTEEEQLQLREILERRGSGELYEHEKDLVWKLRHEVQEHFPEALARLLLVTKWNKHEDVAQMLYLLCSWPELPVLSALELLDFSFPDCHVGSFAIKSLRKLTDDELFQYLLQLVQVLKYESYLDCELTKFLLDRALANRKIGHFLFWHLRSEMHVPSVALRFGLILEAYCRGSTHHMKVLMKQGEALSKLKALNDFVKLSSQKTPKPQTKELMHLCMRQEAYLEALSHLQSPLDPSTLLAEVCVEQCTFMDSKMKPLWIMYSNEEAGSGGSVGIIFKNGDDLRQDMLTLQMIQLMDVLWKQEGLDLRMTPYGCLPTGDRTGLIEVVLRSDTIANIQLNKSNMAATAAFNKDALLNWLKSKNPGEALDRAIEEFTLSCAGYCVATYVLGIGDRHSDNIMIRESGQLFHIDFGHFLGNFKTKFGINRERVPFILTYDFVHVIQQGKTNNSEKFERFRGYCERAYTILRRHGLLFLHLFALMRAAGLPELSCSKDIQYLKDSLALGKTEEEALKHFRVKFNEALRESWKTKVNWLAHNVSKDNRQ

in vivo [41] = conditions: ICR, mouse, in vivo, iv, 3 mg/kg; remark: listed apart in the source
[42] = target: Phosphatidylinositol 4,5-bisphosphate 3-kinase catalytic subunit beta isoform (Homo sapiens, UniProt P42338); assay: Inhibition of PI3Kbeta (unknown origin) using PIP2 as substrate by ADP-Glo assay
HGC-27 [43] = assay: cells; format: functional, cell-based; conditions: Homo sapiens, HGC-27, 96 h
Description: Cytotoxicity against human HGC27 cells after 96 hrs by MTT assay

[44] = target: RAC-alpha serine/threonine-protein kinase (Homo sapiens, UniProt P31749); assay: Inhibition of AKT1 (unknown origin) using FAM-labeled peptide as substrate by mobility shift assay
PC-3 = assay: cells; format: functional, cell-based; conditions: Homo sapiens, PC-3, 96 h
Description: Cytotoxicity against human PC3 cells after 96 hrs by MTT assay

MGC-803 [45] = assay: Antitumor activity against human MGC803 cells xenografted in BALB/c nude mouse assessed as tumor growth inhibition at 10 mg/kg, po administered once daily for 18 days measured at post last dose relative to control; format: functional; conditions: MGC-803, po, 432 h, read-out: TGI

Chain of RAC-alpha serine/threonine-protein kinase (P31749 whole entry): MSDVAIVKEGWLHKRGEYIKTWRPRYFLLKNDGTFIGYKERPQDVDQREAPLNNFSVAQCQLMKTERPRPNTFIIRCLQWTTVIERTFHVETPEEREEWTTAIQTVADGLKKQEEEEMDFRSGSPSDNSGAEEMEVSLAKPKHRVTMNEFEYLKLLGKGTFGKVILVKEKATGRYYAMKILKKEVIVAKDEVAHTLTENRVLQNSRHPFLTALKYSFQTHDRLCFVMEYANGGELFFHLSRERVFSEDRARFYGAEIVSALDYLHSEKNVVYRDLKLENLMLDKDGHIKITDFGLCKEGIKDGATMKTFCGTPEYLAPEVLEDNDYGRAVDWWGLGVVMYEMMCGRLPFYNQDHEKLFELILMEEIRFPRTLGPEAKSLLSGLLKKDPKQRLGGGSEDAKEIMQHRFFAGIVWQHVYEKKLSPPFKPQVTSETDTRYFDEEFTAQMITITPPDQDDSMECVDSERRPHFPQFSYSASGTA
Chain of Phosphatidylinositol 4,5-bisphosphate 3-kinase catalytic subunit gamma isoform (P48736 whole entry, canonical isoform): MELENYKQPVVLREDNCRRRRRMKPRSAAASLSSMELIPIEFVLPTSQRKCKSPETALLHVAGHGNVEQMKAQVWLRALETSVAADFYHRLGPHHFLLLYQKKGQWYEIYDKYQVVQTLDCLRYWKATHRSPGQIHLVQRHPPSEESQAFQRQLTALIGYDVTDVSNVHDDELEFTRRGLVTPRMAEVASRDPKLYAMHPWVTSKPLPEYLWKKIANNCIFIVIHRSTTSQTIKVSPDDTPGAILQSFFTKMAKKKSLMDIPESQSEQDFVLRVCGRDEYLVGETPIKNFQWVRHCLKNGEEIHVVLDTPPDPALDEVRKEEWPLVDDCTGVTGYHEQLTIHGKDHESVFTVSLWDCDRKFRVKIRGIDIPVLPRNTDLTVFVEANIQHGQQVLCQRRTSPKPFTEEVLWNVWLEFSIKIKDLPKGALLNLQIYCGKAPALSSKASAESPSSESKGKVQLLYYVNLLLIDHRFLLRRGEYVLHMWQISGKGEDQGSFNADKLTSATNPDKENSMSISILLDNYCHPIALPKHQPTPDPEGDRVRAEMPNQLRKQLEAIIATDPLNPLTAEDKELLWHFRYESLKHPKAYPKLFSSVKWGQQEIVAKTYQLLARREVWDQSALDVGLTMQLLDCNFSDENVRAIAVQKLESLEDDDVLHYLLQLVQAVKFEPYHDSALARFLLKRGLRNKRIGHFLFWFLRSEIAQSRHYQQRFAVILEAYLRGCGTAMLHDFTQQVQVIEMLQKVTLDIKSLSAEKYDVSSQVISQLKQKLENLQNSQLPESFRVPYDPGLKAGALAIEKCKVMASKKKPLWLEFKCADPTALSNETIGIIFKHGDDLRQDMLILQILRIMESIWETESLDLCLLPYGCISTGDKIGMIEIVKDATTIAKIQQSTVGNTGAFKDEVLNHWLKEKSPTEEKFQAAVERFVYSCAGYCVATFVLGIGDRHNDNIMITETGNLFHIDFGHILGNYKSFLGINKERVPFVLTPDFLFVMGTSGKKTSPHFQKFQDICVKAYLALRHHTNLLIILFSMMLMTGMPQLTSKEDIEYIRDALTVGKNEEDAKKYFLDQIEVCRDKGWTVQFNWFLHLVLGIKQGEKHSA
Chain of Phosphatidylinositol 4,5-bisphosphate 3-kinase catalytic subunit beta isoform (P42338 whole entry, canonical isoform): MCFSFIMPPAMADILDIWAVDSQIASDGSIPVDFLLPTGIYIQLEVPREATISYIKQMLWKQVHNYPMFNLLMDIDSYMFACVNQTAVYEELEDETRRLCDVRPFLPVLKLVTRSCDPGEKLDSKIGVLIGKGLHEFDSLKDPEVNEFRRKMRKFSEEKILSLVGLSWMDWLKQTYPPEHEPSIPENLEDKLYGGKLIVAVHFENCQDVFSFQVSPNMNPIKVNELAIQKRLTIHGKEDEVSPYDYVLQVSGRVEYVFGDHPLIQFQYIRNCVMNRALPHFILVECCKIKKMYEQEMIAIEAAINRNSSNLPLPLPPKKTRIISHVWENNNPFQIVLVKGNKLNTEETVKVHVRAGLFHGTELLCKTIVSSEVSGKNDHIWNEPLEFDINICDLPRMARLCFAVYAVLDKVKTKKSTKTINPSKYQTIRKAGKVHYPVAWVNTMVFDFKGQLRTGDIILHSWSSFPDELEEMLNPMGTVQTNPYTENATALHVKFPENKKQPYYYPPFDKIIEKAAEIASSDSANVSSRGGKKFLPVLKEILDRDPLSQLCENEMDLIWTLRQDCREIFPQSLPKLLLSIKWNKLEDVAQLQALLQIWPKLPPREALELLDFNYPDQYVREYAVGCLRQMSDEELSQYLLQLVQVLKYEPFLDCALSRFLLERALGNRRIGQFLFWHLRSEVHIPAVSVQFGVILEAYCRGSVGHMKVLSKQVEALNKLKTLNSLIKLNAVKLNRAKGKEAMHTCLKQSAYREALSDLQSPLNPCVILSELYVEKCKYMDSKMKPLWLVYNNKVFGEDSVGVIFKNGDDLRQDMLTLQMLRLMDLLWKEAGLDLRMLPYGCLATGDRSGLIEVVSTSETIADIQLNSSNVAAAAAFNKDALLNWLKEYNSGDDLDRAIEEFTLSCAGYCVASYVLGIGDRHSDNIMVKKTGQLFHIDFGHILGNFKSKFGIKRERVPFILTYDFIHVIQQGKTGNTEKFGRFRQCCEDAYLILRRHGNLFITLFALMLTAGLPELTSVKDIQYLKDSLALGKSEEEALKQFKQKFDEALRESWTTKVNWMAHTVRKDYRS

CC(=O)O[C@H]1C(=O)[C@@]2(C)[C@H]([C@H](OC(=O)c3ccccc3)[C@]3(O)C[C@H](OC(=O)[C@H](O)[C@@H](NC(=O)c4ccccc4)c4ccccc4)C(C)=C1C3(C)C)[C@]1(OC(C)=O)CO[C@@H]1C[C@@H]2O [PACLITAXEL]
inhibition in vivo at 24 mg/kg (NCI-H460 [1]): 75.4%
Activity (Mus musculus [2]): Toxic
Activity (Mus musculus [3]): Toxic
inhibition in vivo at 24 mg/kg (NCI-H460 [4]): 85.9%

COc1ccc(CN2CCNCC2)c(OC)c1OC [TRIMETAZIDINE]
inhibition in vivo at 30 mg/kg (U-87 MG [5]): 98.1%

COc1ccc(-c2cc3c(C)nc(N)nc3n([C@H]3CC[C@H](OCCO)CC3)c2=O)cn1 [PF-04691502]
inhibition in vivo at 10 mg/kg (NCI-H460 [6]): 67.4%
IC50 (NCI-H460 [7]): 200 nM
Activity (Mus musculus [8]): Toxic

COc1ncc(-c2cc(OC3CCOCC3)c3nc(N)nc(C)c3c2)cc1NS(=O)(=O)c1ccc(F)cc1F
Vd (in vivo [9]): 0.853 L/kg
IC50 (NCI-H460 [10]): 0.016 µg/mL (≈ 0.0287 µM)
AUC(0-t) at 24 h (in vivo [11]): 11800 ng·h/mL
inhibition in vivo at […] (MGC-803 [12]): 68.2%
fraction unbound at 6 h, 2 µM (in vitro [13]): 0.0422
inhibition in vivo at 5 mg/kg (MGC-803 [14]): 77.2%
bioavailability (in vivo [15]): 33.2%
IC50 (DU-145): 1700 nM
clearance (in vivo [16]): 7.58 mL/min/kg
AUC(0-inf) (in vivo [17]): 36200 ng·h/mL
inhibition in vivo at […] (HGC-27 [18]): 92.2%
fraction unbound at 6 h, 2 µM (in vitro [19]): 0.0823
IC50 [20]: 1.3 nM
TGI (NCI-H209 [21]): Dose-dependent effect
IC50 (U-87 MG [22]): 120 nM
AUC(0-t) (in vivo [23]): 23900 ng·h/mL
IC50 (U-251): 320 nM
inhibition in vivo at […] (NCI-H209 [24]): 80.9%
IC50 (MDA-MB-231): 180 nM
Cmax (in vivo [25]): 93 ng/g
half-life (in vivo [26]): 88.8 min
Cmax (in vivo [27]): 10300 ng/mL
MTD at 336 h (in vivo [28]): > 40 mg/kg
Tmax (in vivo [29]): 1.8 min
IC50 (SH-SY5Y): 280 nM
inhibition in vivo at 5 mg/kg (NCI-H209 [30]): 91.7%
Cmax (in vivo [31]): 4290 ng/mL
IC90 (Mus musculus [32]): 0.00081 µg/mL (≈ 0.00145 µM)
AUCt [33]: 234 ng·h/g
TGI (MGC-803 [34]): Dose-dependent effect
inhibition in vivo at 5 mg/kg (NCI-H460 [35]): 72.5%
IC50 (A549): 53 nM
IC50 (T98G): 420 nM
inhibition in vivo at 10 mg/kg (NCI-H460 [6]): 79.8%
AUC(0-inf) (in vivo [36]): 7240 ng·h/mL
Tmax (in vivo [37]): 30 min
half-life (in vivo [38]): 666 min
IC50 [39]: 7.9 nM
IC50 [40]: 0.18 nM
AUC(0-t) (in vivo [41]): 7190 ng·h/mL
IC50 [42]: 0.53 nM
IC50 (HGC-27 [43]): 25 nM
IC50 [44]: > 10000 nM
IC50 (PC-3): 150 nM
inhibition in vivo at 10 mg/kg (MGC-803 [45]): 77.7%
